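48-hour exposure; five concentrations; linearly interpolated endpoints. TGI marks complete inhibition of growth.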 Where a SMILES comes first, the peptide text is derived from it. [ ]: non-standard residue; d: D form. The star is where a group is joined. X28 = COC1=CC(=O)N(C(=O)[C@@H](O*)C(C)C)[C@H]1Cc1ccccc1; NMeL = CN[C@@H](CC(C)C)C(=O)O; Hexanoyl = CCCCCC(=O)*
Legend:
Experiment in all cases: NCI tumour cell line growth inhibition, 48 h
EKVX NSCLC = system: EKVX NSCLC
UACC-257 melanoma = system: UACC-257 melanoma
OVCAR-8 ovarian = system: OVCAR-8 ovarian
PC-3 prostate = system: PC-3 prostate
NCI-H226 lung = system: NCI-H226 lung
RPMI-8226 leukemia = system: RPMI-8226 leukemia
OVCAR-5 ovarian = system: OVCAR-5 ovarian
HT29 colon = system: HT29 colon
UACC-62 melanoma = system: UACC-62 melanoma
DU-145 prostate = system: DU-145 prostate
RXF 393 renal = system: RXF 393 renal
A549 NSCLC = system: A549 NSCLC

Compound	TGI (EKVX NSCLC) [µM]	TGI (UACC-257 melanoma) [µM]	TGI (OVCAR-8 ovarian) [µM]	TGI (PC-3 prostate) [µM]	TGI (NCI-H226 lung) [µM]	TGI (RPMI-8226 leukemia) [µM]	TGI (OVCAR-5 ovarian) [µM]	TGI (HT29 colon) [µM]	TGI (UACC-62 melanoma) [µM]	TGI (DU-145 prostate) [µM]	TGI (RXF 393 renal) [µM]	TGI (A549 NSCLC) [µM]
OC1(c2ccc(Cl)cc2)c2ccccc2C2=Nc3ccccc3CN21 (configuration not stated)	> 81.6	> 100	38.2	> 100	> 71.9	> 100	> 100	33.8	> 100	> 100	55.4	28.6
C(=N\NC1=NCCCN1)/c1ccc(-c2cn3cc(/C=N/NC4=NCCCN4)ccc3n2)cc1	> 100	> 100	> 89	> 57.3	> 100	> 88.6	> 100	> 71.7	> 100	> 100	> 100	> 100
c1ccc(COc2nc3ccc(C45CC6CC(CC(C6)C4)C5)cc3[nH]2)cc1	> 100	> 26.4	> 100	> 100	46.2	30.9	> 100	> 100	> 100	> 100	55.8	> 100
CCCCCC(=O)N[C@H](C(=O)N[C@H](C(=O)N(C)[C@@H](CC(C)C)C(=O)N1CCC[C@H]1C(=O)N1CCC[C@H]1C(=O)O[C@H](C(=O)N1C(=O)C=C(OC)[C@@H]1Cc1ccccc1)C(C)C)C(C)C)C(C)C (Hexanoyl-VV[NMeL]PP-X28)	> 100	> 100	> 100	> 80.5	> 100	> 100	> 100	> 100	> 100	> 100	90.3	> 100
O=c1[nH]c2ccc(CC(=S)N3CCN(c4ccccc4)CC3)cc2s1	> 100	> 100	82	> 100	69.6	49.8	84.5	> 100	> 100	> 100	46.4	
Fc1ccc(C(=NCc2ccccc2)N2CCOCC2)cc1	> 100	> 100	> 100	> 100	> 100	> 100	> 100	> 100	> 100	> 100	> 100	
COc1ccc(OC)c2c1C[C@@H]1C(C#N)N3[C@H](Cc4c(OC)ccc(OC)c4[C@@H]3C)C(=O)N1[C@H]2C (some centres not stated)	20.5	6.96	9.93	11.7	40.9	7.29	23.7	30.4	6.52	> 54.7	3.44	> 54.3
CC(C)C[C@H](NC(=O)[C@@H](Cc1cccc2ccccc12)NC(=O)N1CCOCC1)B(O)O	47.6	5.18	44.9	24.9	3.2	17.4	13.5	8.86	16	29.7	6.8	68
COC(=O)C1Cc2c([nH]c3ccccc23)-c2[nH]c3ccccc3c2CC(NC(C)=O)C(=O)NCC(=O)N1 (configuration not stated)	> 100	> 100	> 100	> 100	> 100	> 100	> 100	> 100	> 100	> 100	> 100	> 100
CCCCN(CCCC)CC(=O)c1ccc2cc(Cl)c3ccccc3c2c1	> 100	98.9	51.8	> 100	89.5	> 100	> 100	46	> 100	> 100	46.2	> 100
COC(=O)c1c(C)nc(C)c(N=O)c1-c1ccccc1C(F)(F)F	> 100	32.8	35.6	> 100	43.2	> 100	51.4	29.1	> 100	> 100	29.7	> 100
CCOC(=O)C1(C(=O)OCC)C[C@H]2CON=C2[C@@H]1c1ccc(C(F)(F)F)cc1	96.6	> 100	> 100	> 100	> 100	> 100	> 100	> 100	> 100	> 100	> 100	> 100
CCC(C#N)N(Cc1cccc(CN(C(C)=O)C(C#N)CC)c1)C(C)=O (configuration not stated)	> 100	> 100	> 100	> 100	> 100	> 100	> 100	> 100	> 100	> 100	> 100	> 100
COc1ccccc1NC(=S)N/N=C(/c1ccccc1)c1ccccn1	5.46	1.13	10.5	16.7	8.64	6.14	13.2	21	9.23	4.95	13.9	16.3
CCOC(=O)c1cc(-c2ccc(OC)c(OC)c2)cn1C	> 10	> 10	> 10	> 10	> 10	> 10	> 10	> 10	> 10	> 10	> 10	> 10
C=C1C(=O)OC2C(C)C3C=CC(=O)[C@@]3(C)C(OC(=O)/C(C)=C/C)C1[C@@H]2OC(C)=O (some centres not stated)	1.27	1.66	0.628	1.87	4.42	3.16	3.32	1.18	0.81	3.23	0.61	3.8
C=C(C)C1CC2=C(C(=O)OC)C=C(O2)C(C(=C)C)[C@@H]2OC(=O)/C(=C\C1O)[C@H]2N(C)C (some centres not stated)	29	37.1	25.8	24.5	21.7	14.9	38	> 100	28.3	24.8	15.7	30.8

From PubChem BioAssay (NCI)
